# In PMC3165048 (Chemistry & biology, 2010):
# System: M. tuberculosis knock-in strains overexpressing MtMetAP1a or MtMetAP1c, wild-type and control strains
# Type: cell-based, M. tuberculosis CDC1551
structure (smiles),measurement,value
"O=C1C(Cl)=C(Cl)C(=O)c2ccccc21 [Compound 4, 2,3-dichloro-1,4-naphthoquinone]",Growth of MtMetAP1a knock-in strain in the presence of inhibitor,gained resistance
same,Growth of MtMetAP1c knock-in strain in the presence of inhibitor,gained resistance
same,Growth of wild-type and control M. tuberculosis strains in the presence of inhibitor,inhibited
